Test results reported in ChEMBL document CHEMBL1201862, “PubChem BioAssay data set” (2004).
Calls of active or inactive are those of the source.

How the values were obtained:
HEK293 [1] = assay: NOD2 signaling inhibitors in MDP-stimulated cells, cell-based, uHTS, luminescence (AID 2001); format: functional; settings: Homo sapiens
HEK293 [2] = assay: cells; format: functional, cell-based; settings: Homo sapiens
[3] = molecular target: Nucleotide-binding oligomerization domain-containing protein 2 (Homo sapiens, UniProt Q9HC29); assay: NOD2 signaling inhibitors, cell-based, luminescence, uHTS, HEK293 (AID 1566); format: functional
HEK293 [4] = assay: NOD1 signaling inhibitors, primary screen, cell-based, luminescence, uHTS (AID 1578); format: functional; settings: Homo sapiens
HEK293 [5] = assay: cells; format: functional, cell-based; settings: Homo sapiens; remark: listed apart in the source
[6] = molecular target: T1, Heat shock factor protein 1 (Mus musculus, UniProt P38532); assay: inhibition of MG132-induced HSE-luciferase signal, confirmation, cell-based, NIH3T3, luminescence, dose retest (AID 2382); format: functional;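 also: NIH3T3 fibroblasts with HSF1-driven luciferase reporter stressed by proteasome inhibitor MG132; luminescence from HSF1-driven luciferase expression after 8 hours of MG132 stress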
T1 sequence (P38532 whole entry): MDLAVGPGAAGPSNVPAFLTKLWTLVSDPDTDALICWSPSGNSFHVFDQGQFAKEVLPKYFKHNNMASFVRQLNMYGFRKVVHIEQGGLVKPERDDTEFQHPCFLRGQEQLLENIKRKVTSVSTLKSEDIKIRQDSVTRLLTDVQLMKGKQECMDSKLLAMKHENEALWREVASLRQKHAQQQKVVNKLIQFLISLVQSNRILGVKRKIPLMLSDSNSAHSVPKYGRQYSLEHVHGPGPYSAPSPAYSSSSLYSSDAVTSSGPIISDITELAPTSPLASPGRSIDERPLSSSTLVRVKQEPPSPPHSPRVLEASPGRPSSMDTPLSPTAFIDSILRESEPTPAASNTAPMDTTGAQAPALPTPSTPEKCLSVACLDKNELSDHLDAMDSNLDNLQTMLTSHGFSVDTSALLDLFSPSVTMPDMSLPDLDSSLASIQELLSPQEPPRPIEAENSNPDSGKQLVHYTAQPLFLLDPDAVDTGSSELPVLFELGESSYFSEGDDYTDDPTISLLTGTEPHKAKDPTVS

HEK293 [7] = assay: cells; format: functional, cell-based; settings: Homo sapiens; remark: listed apart in the source
Genome polyprotein = Genome polyprotein (dengue virus type 2, UniProt P29990); assay: Dengue-2 NS5 methyltransferase inhibitors, primary screen, biochemical, confirmation dose response (AID 588689); format: functional
[8] = molecular target: T2, Long-chain-fatty-acid--AMP ligase FadD28 (Mycobacterium tuberculosis, UniProt P9WQ59); assay: Fluorescence polarization aasay to screen for inhibitors that compete for the binding of FadD28 to a bisubstrate Measured in Biochemical System Using Plate Reader - 2147-01_Inhibitor_Dose_CherryPick_Activity.; format: functional, Mycobacterium tuberculosis H37Rv
T2 sequence (P9WQ59 whole entry): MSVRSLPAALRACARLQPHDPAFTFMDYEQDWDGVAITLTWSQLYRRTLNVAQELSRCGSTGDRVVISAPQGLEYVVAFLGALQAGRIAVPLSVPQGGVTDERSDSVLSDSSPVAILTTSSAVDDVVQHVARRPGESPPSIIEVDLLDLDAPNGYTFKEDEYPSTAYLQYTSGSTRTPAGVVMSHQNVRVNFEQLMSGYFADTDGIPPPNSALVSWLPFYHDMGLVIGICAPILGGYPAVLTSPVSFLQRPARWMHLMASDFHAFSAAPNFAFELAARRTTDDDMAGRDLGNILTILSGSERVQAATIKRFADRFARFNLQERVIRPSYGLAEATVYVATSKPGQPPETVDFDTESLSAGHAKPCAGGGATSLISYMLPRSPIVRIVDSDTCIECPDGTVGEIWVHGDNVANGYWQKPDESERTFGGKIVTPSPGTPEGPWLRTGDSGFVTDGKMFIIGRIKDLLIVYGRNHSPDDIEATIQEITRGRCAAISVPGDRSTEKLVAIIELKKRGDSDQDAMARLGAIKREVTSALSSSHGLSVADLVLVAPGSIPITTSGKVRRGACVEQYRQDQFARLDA

[9] = molecular target: DNA dC->dU-editing enzyme APOBEC-3G (Homo sapiens, UniProt Q9HC16); format: functional;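 also: Dose-response counterscreen measuring inhibition of APOBEC3G DNA deaminase activity, run while confirming APOBEC3A inhibitors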
[10] = molecular target: DNA dC->dU-editing enzyme APOBEC-3A (Homo sapiens, UniProt P31941); assay: Dose Response confirmation of small molecule APOBEC3A DNA Deaminase Inhibitors via a fluorescence-based single-stranded DNA deaminase assay. [Related pubchem assays (depositor defined):AID493011, AID493024]; format: functional
Caspase-6 = molecular target: T3, Caspase-6 (Homo sapiens, UniProt P55212); assay: human caspase-6 inhibitors, dose response, biochemical, VEID-R110 fluorescence, cherry-pick (AID 720632)
T3 sequence (P55212 whole entry): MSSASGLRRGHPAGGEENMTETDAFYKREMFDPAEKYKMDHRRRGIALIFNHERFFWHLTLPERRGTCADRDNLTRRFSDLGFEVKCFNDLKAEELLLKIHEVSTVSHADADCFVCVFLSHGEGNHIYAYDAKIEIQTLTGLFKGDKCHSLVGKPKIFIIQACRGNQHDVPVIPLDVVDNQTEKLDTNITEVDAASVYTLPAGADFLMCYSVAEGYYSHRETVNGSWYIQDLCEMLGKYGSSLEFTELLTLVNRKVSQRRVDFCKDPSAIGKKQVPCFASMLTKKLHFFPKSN

[11] = inhibitors of SNCA 5'UTR-driven reporter translation, confirmation, H4 neuroglioma cells, luminescence (AID 1988); format: functional, cell-based
[12] = molecular target: T4, Corticotropin-releasing factor receptor 2/Corticotropin-releasing factor-binding protein (Homo sapiens, UniProt P24387+Q13324); assay: activators of CRF receptor 2 with binding protein – uHTS hits, confirmation (AID 602473); format: functional; settings: read-out: EC50_Mean
T4 sequence (Q13324 whole entry): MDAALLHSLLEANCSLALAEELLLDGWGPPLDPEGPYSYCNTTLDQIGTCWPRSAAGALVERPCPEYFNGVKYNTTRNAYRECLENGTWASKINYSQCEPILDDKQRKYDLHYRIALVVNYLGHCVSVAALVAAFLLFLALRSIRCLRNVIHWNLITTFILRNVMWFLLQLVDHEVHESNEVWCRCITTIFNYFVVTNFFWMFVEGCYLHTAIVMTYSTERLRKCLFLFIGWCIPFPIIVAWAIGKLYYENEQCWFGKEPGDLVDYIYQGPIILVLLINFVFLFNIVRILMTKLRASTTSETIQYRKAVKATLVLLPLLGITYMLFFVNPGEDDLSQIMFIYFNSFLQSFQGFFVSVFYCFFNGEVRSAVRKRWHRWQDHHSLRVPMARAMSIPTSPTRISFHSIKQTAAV
T4 sequence (P24387 whole entry): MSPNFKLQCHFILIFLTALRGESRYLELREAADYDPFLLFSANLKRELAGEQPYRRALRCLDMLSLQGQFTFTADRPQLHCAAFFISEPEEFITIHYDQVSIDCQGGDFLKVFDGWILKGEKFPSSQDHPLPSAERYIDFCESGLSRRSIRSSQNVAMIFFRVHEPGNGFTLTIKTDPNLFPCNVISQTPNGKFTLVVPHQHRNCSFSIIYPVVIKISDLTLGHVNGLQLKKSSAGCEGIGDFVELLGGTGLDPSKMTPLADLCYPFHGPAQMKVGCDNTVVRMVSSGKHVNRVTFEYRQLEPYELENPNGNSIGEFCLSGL

[13] = inhibitors of firefly luciferase expression or activity, dose response, H4 neuroglioma cells, luminescence (AID 1990); format: functional, cell-based
[14] = cytotoxicity in HEK-293T cells, dose response, cytotoxicity control for BCR NF-kB inhibitor project, luminescence, B-cell screen hits (AID 489021); format: functional, cell-based;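 also: HEK-293T cells carrying an NF-kB luciferase reporter; cells exposed to compound for about 14 hours before viability readout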
[15] = Luminescence Cell-Based Dose Response HTS to Identify Inhibitors of 5'UTR Stem-Loop Driven Prion Protein mRNA Translation in H4 Neuroglioblastoma Cells. [Related pubchem assays: 1827 (Project Summary), 1813 (Primary HTS)]; format: functional
[16] = molecular target: T5, Short transient receptor potential channel 4 (Mus musculus, UniProt Q9QUQ5); assay: mouse TRPC4 channel activators, dose response, cell-based, HEK293 TRPC4/mu-opioid, Fluo-4 calcium (AID 434937); format: functional
T5 sequence (Q9QUQ5 whole entry): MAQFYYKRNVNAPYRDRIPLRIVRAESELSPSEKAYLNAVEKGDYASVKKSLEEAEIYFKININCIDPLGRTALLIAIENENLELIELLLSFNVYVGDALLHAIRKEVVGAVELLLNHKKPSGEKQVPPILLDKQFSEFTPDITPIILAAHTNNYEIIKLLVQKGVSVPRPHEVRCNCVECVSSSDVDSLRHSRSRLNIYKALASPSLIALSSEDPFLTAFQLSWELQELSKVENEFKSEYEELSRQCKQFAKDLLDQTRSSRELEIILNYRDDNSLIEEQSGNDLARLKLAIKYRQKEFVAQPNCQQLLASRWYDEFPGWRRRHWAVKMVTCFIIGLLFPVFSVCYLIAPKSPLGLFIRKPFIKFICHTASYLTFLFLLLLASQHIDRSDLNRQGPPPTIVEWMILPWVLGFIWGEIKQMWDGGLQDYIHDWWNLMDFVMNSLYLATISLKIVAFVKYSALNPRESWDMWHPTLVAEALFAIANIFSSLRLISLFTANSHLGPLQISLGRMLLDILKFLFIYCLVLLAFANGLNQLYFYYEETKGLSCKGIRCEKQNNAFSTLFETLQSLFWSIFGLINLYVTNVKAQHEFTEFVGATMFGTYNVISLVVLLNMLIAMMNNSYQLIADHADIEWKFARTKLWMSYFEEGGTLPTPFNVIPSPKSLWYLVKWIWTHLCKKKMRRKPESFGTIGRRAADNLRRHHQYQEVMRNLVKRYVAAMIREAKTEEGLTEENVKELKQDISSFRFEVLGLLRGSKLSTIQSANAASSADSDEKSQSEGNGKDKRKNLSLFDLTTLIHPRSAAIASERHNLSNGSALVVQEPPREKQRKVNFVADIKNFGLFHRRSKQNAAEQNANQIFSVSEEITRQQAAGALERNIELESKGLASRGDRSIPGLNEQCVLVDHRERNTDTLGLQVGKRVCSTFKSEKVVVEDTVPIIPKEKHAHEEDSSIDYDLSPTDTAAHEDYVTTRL

Troponin, cardiac muscle = Troponin, cardiac muscle (Homo sapiens, UniProt P19429+P45379+P63316); assay: Fluorescence-based biochemical high throughput dose response assay for activators of the calcium sensitivity of cardiac Regulated Thin Filaments (RTF). [Related pubchem assays (depositor defined):AID493008, AID493018, AID504382, AID504383]; format: protein-complex assay
H4 = assay: Luminescence Cell-Based Dose Response HTS to Identify Activators of 5'UTR Stem-Loop Driven Prion Protein mRNA Translation in H4 Neuroglioblastoma Cells. [Related pubchem assays: 1829 (Project Summary), 1814 (Primary HTS)]; format: functional; settings: Homo sapiens
[17] = inhibitors of intracellular T. cruzi replication, confirmation, NIH3T3 host cells, beta-gal luminescence (AID 2044); format: functional, cell-based;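 also: intracellular parasites grown in NIH/3T3 mouse fibroblasts as host cells; luminescent beta-galactosidase reporter signal from transgenic T. cruzi replicating inside host cells; inhibitors lower the luminescence signal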
[18] = cytotoxicity toward NIH3T3 fibroblasts, dose response, counter-screen, cell-based, ATP luminescence, mouse fibroblasts (AID 2010); format: functional;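 also: cells exposed to compound for about 90 hours before reading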
Beta-galactosidase = Beta-galactosidase (Escherichia coli, UniProt Q8VNN2); assay: beta-galactosidase enzyme inhibitors and activators, dose response, artefact control for CCR6 antagonist project, biochemical, E. coli enzyme, set 3 (AID 504712); format: functional
Streptococcus = assay: Group A Streptococcus viability loss, dose response, counter-screen for streptokinase expression inhibitor project, luminescence, BacTiterGlo (AID 1915); format: functional, organism-based;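 also: potency for reduction of bacterial viability or growth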
[19] = tested on: Streptococcus sp. 'group A'; assay: growth inhibition of control SK(-) GAS strain, dose response, counter-screen for streptokinase expression inhibitor project, luminescence, kanamycin, BacTiterGlo, confirmation (AID 1900); format: functional, organism-based

Compound: O=C(Nc1ccncc1)c1c(F)cccc1F
- IC50 (HEK293 [1]): 4.33 µM (active)
- IC50 (HEK293 [2]): > 20 µM (inactive)
- EC50 [3]: 4.55 µM (active)
- EC50 (HEK293 [4]): 9.17 µM (active)
- IC50 (HEK293 [5]): 3.91 µM (active)
- EC50 [6]: 24.1 µM (active)
- IC50 (HEK293 [7]): > 20 µM (inactive)

Compound: C=CCOc1ccc(C(c2c(C(=O)O)[nH]c3ccccc23)c2c(C(=O)O)[nH]c3ccccc23)cc1
- IC50 (Genome polyprotein): 22 µM (active)
- AC50 [8]: 12 µM (active)
- IC50 [9]: 28.8 µM (active)
- IC50 [10]: 21.5 µM (active)
- AC50 (Caspase-6): 14.2 µM (active)

Compound: Cc1ccc(CNC(=O)CCNC(=O)c2ccc([N+](=O)[O-])cc2)cc1
- IC50 [9]: 10.9 µM (active)
- IC50 [10]: 6.67 µM (active)

Compound: Cc1cc(C)cc(NC(=O)c2nnn(Cc3cc(C)ccc3C)c2N)c1
- EC50 [11]: 18.2 µM (active)
- EC50 [12]: 8.37 µM (active)
- EC50 [13]: 13.6 µM (active)
- IC50 [14]: > 80 µM (inactive)
- EC50 [15]: 39.8 µM (active)

Compound: COc1ccc(-c2cc(C(=O)NCC(c3ccccc3)N(C)C)c3ccccc3n2)cc1OC (configuration not stated)
- EC50 [16]: 10.6 µM (active)

Compound: CCN1C(=O)/C(=C/N2CCc3ccccc32)SC1=S
- EC50 (Troponin, cardiac muscle): 5.4 µM (active)
- EC50 (H4): 4.21 µM (active)

Compound: CCN1CCN(c2ccc(S(=O)(=O)N3CCCCC3)cc2NC(=O)C(C)Oc2ccc(F)cc2)CC1 (configuration not stated)
- EC50 [16]: 10.6 µM (active)

Compound: O=C1c2cccc3c([N+](=O)[O-])ccc(c23)C(=O)N1Cc1cccnc1
- EC50 [17]: 3.67 µM (active)
- EC50 [18]: 9.5 µM (active)
- IC50 (Beta-galactosidase): 16.8 µM (active)

Compound: O=C(CCSc1ccccc1)N1CCN(C(=O)c2ccco2)CC1
- EC50 (Troponin, cardiac muscle): > 71.5 µM (inactive)

Compound: COC(=O)C1=C(C(=O)OC)C(C(=O)OC)C(C(=O)OC)C(C(=O)OC)(C(=O)OC)C(C(=O)OC)=C1C(=O)OC (configuration not stated)
- IC50 (Beta-galactosidase): > 66.6 µM (inactive)

Compound: COc1ccc(Cl)cc1/C=C/c1ccc2cccc(O)c2n1
- IC50 (HEK293 [1]): 4.73 µM (inactive)
- IC50 (HEK293 [2]): > 20 µM (inactive)
- EC50 (Streptococcus): 3.58 µM (active)
- EC50 [3]: > 20 µM (inactive)
- EC50 (HEK293 [4]): 5.5 µM (active)
- IC50 (HEK293 [5]): 14 µM (active)
- EC50 [19]: 0.786 µM (active)
- IC50 (HEK293 [7]): > 20 µM (inactive)

Compound: CC(COC(=O)c1ccccc1)(COC(=O)c1ccccc1)/[N+]([O-])=C/c1ccccc1
- EC50 (Troponin, cardiac muscle): > 71.5 µM (inactive)
